Measured values: patent US9815796B2 (Merck Sharp & Dohme Corp., priority 2013, dated 2017)
Read-outs that look alike come from different tables or passages of the source.

Assays:
Rhesus PDE2A3 = Rhesus PDE2A3 (Macaca mulatta, UniProt B3VTJ2); test: PDE2 fluorescence polarization (IMAP FP) inhibition assay, rhesus enzyme; assay type: biochemical, rhesus macaque
Method in brief: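 IMAP FP (mP from parallel and perpendicular fluorescence against substrate-only control) was read ≥1 h after adding binding reagent. The preceding 60 min room-temperature reaction contained FAM-cAMP (50 nM) and cGMP (1 uM) in pH 7.2 Tris buffer with MgCl2 and DTT. Enzyme was supernatant of sonicated AD293 cells expressing rhesus PDE2A3; compounds were 3-fold titrated, DMSO 1% final.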

human PDE2A1 = human PDE2A1 (Homo sapiens (Human), UniProt O00408); test: IMAP FP PDE selectivity panel, human PDE2A1; assay type: biochemical
human PDE2A1, sequence (O00408 other isoform, or with tags, fused parts or gaps): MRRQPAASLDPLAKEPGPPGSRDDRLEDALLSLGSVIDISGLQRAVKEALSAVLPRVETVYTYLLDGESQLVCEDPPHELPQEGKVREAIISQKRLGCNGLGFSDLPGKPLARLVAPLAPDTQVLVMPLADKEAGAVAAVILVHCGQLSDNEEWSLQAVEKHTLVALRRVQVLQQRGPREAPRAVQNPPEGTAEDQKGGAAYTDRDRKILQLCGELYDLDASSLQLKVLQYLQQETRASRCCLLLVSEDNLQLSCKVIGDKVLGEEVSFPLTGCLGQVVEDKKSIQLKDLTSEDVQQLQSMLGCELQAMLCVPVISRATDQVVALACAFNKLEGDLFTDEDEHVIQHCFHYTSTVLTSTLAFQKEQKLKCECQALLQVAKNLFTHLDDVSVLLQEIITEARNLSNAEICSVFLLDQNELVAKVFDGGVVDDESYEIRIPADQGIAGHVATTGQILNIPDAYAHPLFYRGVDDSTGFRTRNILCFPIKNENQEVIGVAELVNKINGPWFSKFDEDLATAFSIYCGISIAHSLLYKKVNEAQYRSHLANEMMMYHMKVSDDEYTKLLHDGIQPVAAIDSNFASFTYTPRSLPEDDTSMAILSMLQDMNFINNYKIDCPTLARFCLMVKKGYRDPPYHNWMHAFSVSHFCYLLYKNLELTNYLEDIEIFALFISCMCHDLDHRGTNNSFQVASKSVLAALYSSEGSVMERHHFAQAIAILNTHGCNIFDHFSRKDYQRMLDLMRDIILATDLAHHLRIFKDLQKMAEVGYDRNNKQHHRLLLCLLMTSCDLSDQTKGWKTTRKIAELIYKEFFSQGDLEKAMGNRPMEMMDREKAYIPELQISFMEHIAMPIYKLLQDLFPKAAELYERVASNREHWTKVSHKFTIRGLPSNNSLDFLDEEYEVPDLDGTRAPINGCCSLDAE
Method in brief: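 IMAP FP format: substrate 50 nM FAM-cAMP plus 1000 nM cGMP, enzyme (insect-cell GST-tagged human PDE2A1) at ~20% conversion, 60 min reaction at room temperature. Apparent inhibition constants calculated from parallel/perpendicular fluorescence with KM 10,000 nM.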

[1] = Rhesus PDE2, Lab A, read-out: Rhesus PDE2 Ki (nM) - Lab A
[2] = Rhesus PDE2, Lab B, read-out: Rhesus PDE2 Ki (nM) - Lab B
[3] = Human PDE2, Lab B, read-out: Human PDE2 Ki (nM) - Lab B
[4] = Human PDE2, Lab A, read-out: Human PDE2 Ki (nM) - Lab A

Rhesus PDE2A3, sequence (B3VTJ2 1-941): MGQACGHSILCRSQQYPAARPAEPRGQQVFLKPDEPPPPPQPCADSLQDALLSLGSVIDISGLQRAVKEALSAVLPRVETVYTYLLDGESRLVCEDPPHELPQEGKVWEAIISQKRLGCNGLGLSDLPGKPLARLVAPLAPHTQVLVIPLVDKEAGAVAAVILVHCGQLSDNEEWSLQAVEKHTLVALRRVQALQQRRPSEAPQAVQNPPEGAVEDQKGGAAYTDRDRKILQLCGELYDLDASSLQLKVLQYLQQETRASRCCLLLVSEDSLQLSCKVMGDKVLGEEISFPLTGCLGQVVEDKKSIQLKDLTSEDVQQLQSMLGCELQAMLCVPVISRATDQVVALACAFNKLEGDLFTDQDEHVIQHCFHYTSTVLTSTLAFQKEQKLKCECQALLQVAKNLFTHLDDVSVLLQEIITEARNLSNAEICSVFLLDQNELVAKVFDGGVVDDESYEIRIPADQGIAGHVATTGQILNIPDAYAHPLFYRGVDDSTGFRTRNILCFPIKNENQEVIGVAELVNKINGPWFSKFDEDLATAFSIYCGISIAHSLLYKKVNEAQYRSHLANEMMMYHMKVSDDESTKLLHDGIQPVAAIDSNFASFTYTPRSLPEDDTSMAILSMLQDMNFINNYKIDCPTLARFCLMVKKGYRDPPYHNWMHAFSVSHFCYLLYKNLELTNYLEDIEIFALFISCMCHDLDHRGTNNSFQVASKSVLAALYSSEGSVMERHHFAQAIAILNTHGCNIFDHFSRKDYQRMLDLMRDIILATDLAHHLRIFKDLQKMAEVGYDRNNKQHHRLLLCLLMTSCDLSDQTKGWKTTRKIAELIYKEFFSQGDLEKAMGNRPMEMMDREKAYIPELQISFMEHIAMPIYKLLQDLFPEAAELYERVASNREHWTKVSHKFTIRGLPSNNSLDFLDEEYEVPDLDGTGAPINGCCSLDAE

SMILES	Ki (Rhesus PDE2A3; [1])	Ki (Rhesus PDE2A3; [2])	Ki (human PDE2A1; [3])	Ki (human PDE2A1; [4])
Cc1nc(C(=O)N[C@@H](c2ccc(C3CC3)cc2)C2CC2)cc(=O)[nH]1 [Example 50, N-[(R)-cyclopropyl(4-cyclopropylphenyl)methyl]-2-methyl-6-oxo-1,6-dihydropyrimidine-4-carboxamide]	8 nM	11 nM	8.1 nM	–
Cc1nc(C(=O)NC2(c3ccc(C(F)(F)F)cc3)CCCC2)cc(=O)[nH]1 [Example 270, 2-methyl-6-oxo-N-{1-[4-(trifluoromethyl)phenyl]cyclopentyl}-1,6-dihydropyrimidine-4-carboxamide]	225 nM	–	–	113 nM
COc1ccc(C(C)(C)c2nc(C(=O)N[C@@H](c3ccc(OC(F)(F)F)c(F)c3)C3CC3)cc(=O)[nH]2)cc1 [Example 498, N-{(R)-cyclopropyl[3-fluoro-4-(trifluoromethoxy)phenyl]methyl}-2-[1-(4-methoxyphenyl)-1-methylethyl]-6-oxo-1,6-dihydropyrimidine-4-carboxamide]	–	65 nM	49 nM	–
COc1ccc(C(C)(C)c2nc(C(=O)N[C@@H](c3ccc(SC(F)(F)F)cc3)C3CC3)cc(=O)[nH]2)cc1 [Example 500, N-[(R)-cyclopropyl{4-[(trifluoromethyl)sulfanyl]phenyl}methyl]-2-[1-(4-methoxyphenyl)-1-methylethyl]-6-oxo-1,6-dihydropyrimidine-4-carboxamide]	–	79 nM	74 nM	–
Cc1nc(C(=O)NC2(c3ccc(SC(F)(F)F)cc3)CC2)cc(=O)[nH]1 [Example 35, 2-Methyl-6-oxo-N-(1-(4-((trifluoromethyl)thio)phenyl)cyclopropyl)-1,6-dihydroy primidine-4-carboxamide]	19 nM	–	–	15 nM
O=C(NC(c1ccc(C(F)(F)F)cc1)C(F)(F)F)c1cc(=O)[nH]c(-c2ccccc2)n1 (stereo not shown) [Example 393, 6-oxo-2-phenyl-N-{2,2,2-trifluoro-1-[4-(trifluoromethyl)phenyl]ethyl}-1,6-dihydropyrimidine-4-carboxamide]	–	55 nM	49 nM	–
CC[C@@H](NC(=O)c1cc(=O)[nH]c(C(C)(C)c2ccc(OC)cc2)n1)c1ccc(OC(F)(F)F)c(F)c1 [Example 504, N-{(1R)-1-[3-fluoro-4-(trifluoromethoxy)phenyl]propyl}-2-[1-(4-methoxyphenyl)-1-methylethyl]-6-oxo-1,6-dihydropyrimidine-4-carboxamide]	–	42 nM	30 nM	–
Cc1nc(C(=O)NC(C)(C)c2ccc(C(F)(F)F)c(F)c2)cc(=O)[nH]1 [Example 43, N-{1-[3-fluoro-4-(trifluoromethyl)phenyl]-1-methylethyl}-2-methyl-6-oxo-1,6-dihydropyrimidine-4-carboxamide]	20 nM	14 nM	15 nM	18 nM
COCc1nc(C(=O)N[C@@H](c2ccc(SC(F)(F)F)cc2)C(C)C)cc(=O)[nH]1 [Example 120, 2-(methoxymethyl)-N-[(1R)-2-methyl-1-{4-[(trifluoromethyl)sulfanyl]phenyl}propyl]-6-oxo-1,6-dihydropyrimidine-4-carboxamide]	8.7 nM	–	–	4.2 nM
N#CC(NC(=O)c1cc(=O)[nH]c(-c2ccccc2)n1)c1ccc(C(F)(F)F)cc1 (stereo not shown) [Example 413, N-{cyano[4-(trifluoromethyl)phenyl]methyl}-6-oxo-2-phenyl-1,6-dihydropyrimidine-4-carboxamide]	–	105 nM	126 nM	–
CC(C)c1ccc([C@@H](C)NC(=O)c2cc(=O)[nH]c(-c3ccccc3)n2)cc1 [Example 146, N-{(1R)-1-[4-(1-methylethyl)phenyl]ethyl}-6-oxo-2-phenyl-1,6-dihydropyrimidine-4-carboxamide]	9.3 nM	–	–	7.1 nM
C[C@@H](NC(=O)c1cc(=O)[nH]c(-c2ccccc2)n1)c1ccc(Cl)cc1 [Example 418, N-[(1R)-1-(4-chlorophenyl)ethyl]-6-oxo-2-phenyl-1,6-dihydropyrimidine-4-carboxamide]	–	48 nM	41 nM	–
C[C@@H](NC(=O)c1cc(=O)[nH]c(C2CC2)n1)c1ccc(SC(F)(F)F)c(F)c1 [Example 243, 2-cyclopropyl-N-[(1R)-1-{3-fluoro-4-[(trifluoromethyl)sulfanyl]phenyl}ethyl]-6-oxo-1,6-dihydropyrimidine-4-carboxamide]	3.6 nM	6.7 nM	5.8 nM	–
CC(C)(NC(=O)c1cc(=O)[nH]c(-c2ncccn2)n1)c1ccc(C(F)(F)F)cc1 [Example 288, N-{1-methyl-1-[4-(trifluoromethyl)phenyl]ethyl}-6-oxo-1,6-dihydro-2,2′-bipyrimidine-4-carboxamide]	152 nM	–	–	123 nM
CC(NC(=O)c1cc(=O)[nH]c(-c2ccccc2)n1)c1ccc(-n2cncn2)cc1 (stereo not shown) [Example 363, 6-oxo-2-phenyl-N-{1-[4-(1H-1,2,4-triazol-1-yl)phenyl]ethyl}-1,6-dihydropyrimidine-4-carboxamide]	245 nM	356 nM	354 nM	–
COc1ccc(Cc2nc(C(=O)N[C@@H](c3ccc(OC(F)(F)F)c(F)c3)C3CC3)cc(=O)[nH]2)cc1 [Example 478, N-{(R)-cyclopropyl[3-fluoro-4-(trifluoromethoxy)phenyl]methyl}-2-(4-methoxybenzyl)-6-oxo-1,6-dihydropyrimidine-4-carboxamide]	–	2.1 nM	1.7 nM	–
CC(C)(NC(=O)c1cc(=O)[nH]c(C2CC2)n1)c1ccc(C(F)(F)F)cc1 [Example 293, 2-cyclopropyl-N-{1-methyl-1-[4-(trifluoromethyl)phenyl]ethyl}-6-oxo-1,6-dihydropyrimidine-4-carboxamide]	22 nM	–	–	20 nM
Cc1nc(C(=O)N[C@@H](c2ccc(OC(F)F)cc2)C2(C)CC2)cc(=O)[nH]1 [Example 425, N-[(R)-[4-(difluoromethoxy)phenyl](1-methylcyclopropyl)methyl]-2-methyl-6-oxo-1,6-dihydropyrimidine-4-carboxamide]	–	29 nM	30 nM	–
C[C@@H](NC(=O)c1cc(=O)[nH]c(-c2ccccc2)n1)c1ccc(-c2ccccc2)cc1 [Example 279, N-[(1R)-1-biphenyl-4-ylethyl]-6-oxo-2-phenyl-1,6-dihydropyrimidine-4-carboxamide]	24 nM	–	–	16 nM
C[C@@H](NC(=O)c1cc(=O)[nH]c(-c2ccc(F)c(F)c2)n1)c1ccc(C(F)(F)F)cc1 [Example 139, 2-(3,4-difluorophenyl)-6-oxo-N-{(1R)-1-[4-(trifluoromethyl)phenyl]ethyl}-1,6-dihydropyrimidine-4-carboxamide]	138 nM	–	–	144 nM
COCc1nc(C(=O)N[C@H](C)c2ccc(C(F)(F)F)c(F)c2)cc(=O)[nH]1 [Example 125, N-{(1R)-1-[3-fluoro-4-(trifluoromethyl)phenyl]ethyl}-2-(methoxymethyl)-6-oxo-1,6-dihydropyrimidine-4-carboxamide]	176 nM	–	–	45 nM
CC[C@@H](NC(=O)c1cc(=O)[nH]c(COC)n1)c1ccc(SC(F)(F)F)cc1 [Example 121, 2-(methoxymethyl)-6-oxo-N-[(1R)-1-{4-[(trifluoromethyl)sulfanyl]phenyl}propyl]-1,6-dihydropyrimidine-4-carboxamide]	25 nM	29 nM	–	~6.2 nM
CC[C@@H](NC(=O)c1cc(=O)[nH]c(-c2ccccc2)n1)c1ccc(OC(F)(F)F)c(F)c1 [Example 172]	2.7 nM	–	–	1.9 nM
Cc1nc(C(=O)N[C@@H](c2ccc(C(F)(F)F)c(F)c2)C(C)(C)C)cc(=O)[nH]1 [Example 59]	–	6.4 nM	4.5 nM	–
CC[C@@H](NC(=O)c1cc(=O)[nH]c(-c2ncccn2)n1)c1ccc(C(F)(F)F)c(F)c1 [Example 264, N-{(1R)-1-[3-fluoro-4-(trifluoromethyl)phenyl]propyl}-6-oxo-1,6-dihydro-2,2′-bipyrimidine-4-carboxamide]	4.6 nM	7.9 nM	7.7 nM	–
Cc1nc(C(=O)N[C@@H](c2ccc(C(C)(C)C)cc2)C2(C)CC2)cc(=O)[nH]1 [Example 614, N-[(R)-(4-tert-butylphenyl)(1-methylcyclopropyl)methyl]-2-methyl-6-oxo-1,6-dihydropyrimidine-4-carboxamide]	–	20 nM	17 nM	–
Cc1nc(C(=O)N[C@H](C)c2cccc3ccccc23)cc(=O)[nH]1 [Example 301, (R)-2-methyl-N-(1-(naphthalen-1-yl)ethyl)-6-oxo-1,6-dihydropyrimidine-4-carboxamide]	53 nM	–	–	66 nM
O=C(NC1(c2ccc(OC(F)(F)F)cc2)CC1)c1cc(=O)[nH]c(-c2ncccn2)n1 [Example 285, 6-oxo-N-{1-[4-(trifluoromethoxy)phenyl]cyclopropyl}-1,6-dihydro-2,2′-bipyrimidine-4-carboxamide]	46 nM	–	–	46 nM
Cc1nc(C(=O)N[C@H](C)c2ccc(C3(C)CC3)cc2)cc(=O)[nH]1 [Example 530, 2-methyl-N-{(1R)-1-[4-(1-methylcyclopropyl)phenyl]ethyl}-6-oxo-1,6-dihydropyrimidine-4-carboxamide]	–	47 nM	28 nM	–
COc1ccc(Cc2nc(C(=O)NC3(c4ccc(C(F)(F)F)cc4)CC3)cc(=O)[nH]2)cc1OC [Example 3, 2-(3,4-dimethoxybenzyl)-6-oxo-N-{1-[4-(trifluoromethyl)phenyl]-cyclopropyl}-1,6-dihydropyrimidine-4-carboxamide]	0.54 nM	–	–	0.45 nM
